{
  "source": "paper PMC11310079",
  "about": "“Commensal production of a broad-spectrum and short-lived antimicrobial peptide polyene eliminates nasal Staphylococcus aureus” (Nature Microbiology, 2023)",
  "key": {"S. aureus USA300 JE2": {"system": "S. aureus USA300 JE2", "experiment": "Determination of the IC (miniaturized agar diffusion assay)", "type": "cell-based, Staphylococcus aureus", "details": "agar diffusion on inoculated TSA, 24 h 37 °C dark; IC from inhibited agar volume", "method": "(§1) Instead, a miniaturized assay was developed. Molten TSA, kept below 42 °C, was inoculated with different test strains at an OD600 of 0.00125. Then, 17.5 ml was poured into Petri dishes, resulting in agar layers of ~3.16 mm thickness. After solidification, a cork borer was used to punch wells of 4-mm diameter into the agar. Thirty-five microlitres of purified epifadin in DMSO–PA (2.4 µg, 1.2 µg, 0.6 µg, 0.3 µg, 0.15 µg and 0.075 µg) was pipetted into the wells, and agar plates were incubated for 24 h at 37 °C in the dark. Diameters of the zones of inhibition were measured and the volume containing the inhibitory epifadin concentration was calculated, using the following formula for cylinder volume: Vc=πxr^2xhVc=cylindervolumeVi=πrz2xha−(πrw2xha)Vi=inhibitedvolumerz2=radius(diameter/2)zoneofinhibitionrw2=radius(diameter/2)ofwellha=heightofagar\n(§2) The volume of agar showing inhibition of the test strain was then correlated with the included amount of epifadin, and the epifadin concentration necessary to inhibit test strain growth in a 1 ml volume was calculated to yield IC values. If, for example, 2.4 µg of epifadin lead to an inhibited volume of 480 µl, to inhibit a volume of 1 ml, 5 µg epifadin is needed, which corresponds to an IC of 5 μg ml^−1. These calculations were conducted for the lowest amount of epifadin that led to a zone of inhibition to minimize the necessary epifadin amounts and the calculation error due to the gradient within the inhibition zone. As a control, the same assay was used to determine the IC for vancomycin, daptomycin and lugdunin under these conditions."}, "S. aureus USA300LAC": {"system": "S. aureus USA300LAC", "experiment": "Determination of the IC (miniaturized agar diffusion assay)", "type": "cell-based, Staphylococcus aureus", "details": "agar diffusion on inoculated TSA, 35 µl in 4-mm wells, 24 h 37 °C dark; IC from inhibited agar volume at lowest active amount", "method": "as §1, §2"}, "S. aureus USA300 LAC": {"system": "S. aureus USA300 LAC", "experiment": "Stability analysis of epifadin (bioactivity by agar diffusion after incubation)", "type": "physicochemical, Staphylococcus aureus", "details": "37 °C, pH 7, light, r4-r10 = 0-6 h", "method": "Fig. 2 High instability of epifadin under in vivo-like conditions. S. epidermidis IVK83 culture supernatants containing epifadin were precipitated with HCl, freeze-dried and extracted with DMSO. This extract was diluted in TSB, incubated for the indicated time periods with constant shaking under the respective conditions and subsequently tested for activity towards S. aureus USA300 LAC. a, Stability of epifadin compared with other antibacterial agents under standard laboratory conditions (37 °C, pH 7, laboratory light exposure). b, In vivo-like conditions with laboratory light exposure at pH 7 (nasal condition) or pH 5.5 (skin condition) and reduced temperatures; incubation of epifadin under exclusion from light enabled further purification and activity determination. Conditions at pH 7, 37 °C and 0 h were used as reference for 100% stability. Data shown represent the mean ± s.d. of three independent experiments. Source data\nThe effect of different incubation conditions on the bioactivity of epifadin was analysed by agar diffusion assays on lawns of the sensitive indicator strain S. aureus USA300 LAC. To this end, liquid TSA was inoculated with an overnight culture of USA300 at an OD600 of 0.00125. After solidification of the agar, a cork borer was used to punch wells into the agar with 5 mm diameter. TSB media with 50 mM sodium citrate (pH 5 and 6) or 50 mM tris(hydroxymethyl)aminomethane (pH 8 and 9) were prepared. Epifadin-containing precipitate was dissolved in DMSO (12 mg ml^−1), and insoluble particles were removed by centrifugation. The supernatant was added to the prepared TSB media at a final concentration of 750 µg precipitate per millilitre (37.5 µg in 50 µl). Media were incubated for 6 h at 21 °C, 30 °C or 37 °C with or without laboratory light exposure and constant shaking at 500 rpm in a thermomixer (Eppendorf). As controls, 70 µg ml^−1 (3.5 µg in 50 µl) lugdunin, 24 µg ml^−1 (1.2 µg in 50 µl) gallidermin and 100 µg ml^−1 (5 µg in 50 µl) nisin were used. At different timepoints, 50 µl of each sample was pipetted into the wells of the agar plates. After incubation at 37 °C overnight, zones of inhibition were analysed with ImageJ software (version 1.8.0_112)."}},
  "data": [
    {"molecule": "CN[C@H](CC(C)C)C(=O)N[C@H]1C(=O)N[C@@H](CC(N)=O)C(=O)N[C@H]2C(=O)N[C@H]3C(=O)N[C@H](C(=O)N[C@H](C(=O)O)c4cc(O)cc(O)c4-c4cc3ccc4O)[C@H](O)c3ccc(c(Cl)c3)Oc3cc2cc(c3O[C@@H]2O[C@H](CO)[C@@H](O)[C@H](O)[C@H]2O[C@H]2C[C@](C)(N)[C@H](O)[C@H](C)O2)Oc2ccc(cc2Cl)[C@H]1O", "note": "[Vancomycin]", "values": [
      {"measurement": "IC*", "setting": "S. aureus USA300 JE2", "result": 3.7, "unit": "µg/mL"},
      {"measurement": "IC*", "setting": "S. aureus USA300LAC", "result": 6.0, "unit": "µg/mL"}
    ]},
    {"molecule": "Gallidermin", "values": [
      {"measurement": "stability (remaining antimicrobial activity, 0 h = 100%)", "setting": "S. aureus USA300 LAC; gallidermin 24 µg/ml in TSB, experiment 1 of 3, after 1 h incubation", "result": 98.31, "unit": "%"},
      {"measurement": "stability (remaining antimicrobial activity, 0 h = 100%)", "setting": "S. aureus USA300 LAC; gallidermin 24 µg/ml in TSB, experiment 1 of 3, after 2 h incubation", "result": 98.34, "unit": "%"},
      {"measurement": "stability (remaining antimicrobial activity, 0 h = 100%)", "setting": "S. aureus USA300 LAC; gallidermin 24 µg/ml in TSB, experiment 1 of 3, after 3 h incubation", "result": 97.66, "unit": "%"},
      {"measurement": "stability (remaining antimicrobial activity, 0 h = 100%)", "setting": "S. aureus USA300 LAC; gallidermin 24 µg/ml in TSB, experiment 1 of 3, after 4 h incubation", "result": 104.98, "unit": "%"},
      {"measurement": "stability (remaining antimicrobial activity, 0 h = 100%)", "setting": "S. aureus USA300 LAC; gallidermin 24 µg/ml in TSB, experiment 1 of 3, after 5 h incubation", "result": 100.66, "unit": "%"},
      {"measurement": "stability (remaining antimicrobial activity, 0 h = 100%)", "setting": "S. aureus USA300 LAC; gallidermin 24 µg/ml in TSB, experiment 1 of 3, after 6 h incubation", "result": 98.44, "unit": "%"},
      {"measurement": "stability (remaining antimicrobial activity, 0 h = 100%)", "setting": "S. aureus USA300 LAC; gallidermin 24 µg/ml in TSB, experiment 2 of 3, after 1 h incubation", "result": 97.85, "unit": "%"},
      {"measurement": "stability (remaining antimicrobial activity, 0 h = 100%)", "setting": "S. aureus USA300 LAC; gallidermin 24 µg/ml in TSB, experiment 2 of 3, after 2 h incubation", "result": 106.35, "unit": "%"},
      {"measurement": "stability (remaining antimicrobial activity, 0 h = 100%)", "setting": "S. aureus USA300 LAC; gallidermin 24 µg/ml in TSB, experiment 2 of 3, after 3 h incubation", "result": 110.68, "unit": "%"},
      {"measurement": "stability (remaining antimicrobial activity, 0 h = 100%)", "setting": "S. aureus USA300 LAC; gallidermin 24 µg/ml in TSB, experiment 2 of 3, after 4 h incubation", "result": 102.27, "unit": "%"},
      {"measurement": "stability (remaining antimicrobial activity, 0 h = 100%)", "setting": "S. aureus USA300 LAC; gallidermin 24 µg/ml in TSB, experiment 2 of 3, after 5 h incubation", "result": 103.29, "unit": "%"},
      {"measurement": "stability (remaining antimicrobial activity, 0 h = 100%)", "setting": "S. aureus USA300 LAC; gallidermin 24 µg/ml in TSB, experiment 2 of 3, after 6 h incubation", "result": 108.21, "unit": "%"},
      {"measurement": "stability (remaining antimicrobial activity, 0 h = 100%)", "setting": "S. aureus USA300 LAC; gallidermin 24 µg/ml in TSB, experiment 3 of 3, after 1 h incubation", "result": 100.01, "unit": "%"},
      {"measurement": "stability (remaining antimicrobial activity, 0 h = 100%)", "setting": "S. aureus USA300 LAC; gallidermin 24 µg/ml in TSB, experiment 3 of 3, after 2 h incubation", "result": 96.91, "unit": "%"},
      {"measurement": "stability (remaining antimicrobial activity, 0 h = 100%)", "setting": "S. aureus USA300 LAC; gallidermin 24 µg/ml in TSB, experiment 3 of 3, after 3 h incubation", "result": 95.85, "unit": "%"},
      {"measurement": "stability (remaining antimicrobial activity, 0 h = 100%)", "setting": "S. aureus USA300 LAC; gallidermin 24 µg/ml in TSB, experiment 3 of 3, after 4 h incubation", "result": 100.24, "unit": "%"},
      {"measurement": "stability (remaining antimicrobial activity, 0 h = 100%)", "setting": "S. aureus USA300 LAC; gallidermin 24 µg/ml in TSB, experiment 3 of 3, after 5 h incubation", "result": 103.69, "unit": "%"},
      {"measurement": "stability (remaining antimicrobial activity, 0 h = 100%)", "setting": "S. aureus USA300 LAC; gallidermin 24 µg/ml in TSB, experiment 3 of 3, after 6 h incubation", "result": 91.59, "unit": "%"}
    ]},
    {"molecule": "Nisin", "values": [
      {"measurement": "stability (remaining antimicrobial activity, 0 h = 100%)", "setting": "S. aureus USA300 LAC; nisin 100 µg/ml in TSB, experiment 1 of 3, after 1 h incubation", "result": 97.92, "unit": "%"},
      {"measurement": "stability (remaining antimicrobial activity, 0 h = 100%)", "setting": "S. aureus USA300 LAC; nisin 100 µg/ml in TSB, experiment 1 of 3, after 2 h incubation", "result": 95.64, "unit": "%"},
      {"measurement": "stability (remaining antimicrobial activity, 0 h = 100%)", "setting": "S. aureus USA300 LAC; nisin 100 µg/ml in TSB, experiment 1 of 3, after 3 h incubation", "result": 93.46, "unit": "%"},
      {"measurement": "stability (remaining antimicrobial activity, 0 h = 100%)", "setting": "S. aureus USA300 LAC; nisin 100 µg/ml in TSB, experiment 1 of 3, after 4 h incubation", "result": 95.48, "unit": "%"},
      {"measurement": "stability (remaining antimicrobial activity, 0 h = 100%)", "setting": "S. aureus USA300 LAC; nisin 100 µg/ml in TSB, experiment 1 of 3, after 5 h incubation", "result": 97.51, "unit": "%"},
      {"measurement": "stability (remaining antimicrobial activity, 0 h = 100%)", "setting": "S. aureus USA300 LAC; nisin 100 µg/ml in TSB, experiment 1 of 3, after 6 h incubation", "result": 85.14, "unit": "%"},
      {"measurement": "stability (remaining antimicrobial activity, 0 h = 100%)", "setting": "S. aureus USA300 LAC; nisin 100 µg/ml in TSB, experiment 2 of 3, after 1 h incubation", "result": 104.00, "unit": "%"},
      {"measurement": "stability (remaining antimicrobial activity, 0 h = 100%)", "setting": "S. aureus USA300 LAC; nisin 100 µg/ml in TSB, experiment 2 of 3, after 2 h incubation", "result": 100.36, "unit": "%"},
      {"measurement": "stability (remaining antimicrobial activity, 0 h = 100%)", "setting": "S. aureus USA300 LAC; nisin 100 µg/ml in TSB, experiment 2 of 3, after 3 h incubation", "result": 102.17, "unit": "%"},
      {"measurement": "stability (remaining antimicrobial activity, 0 h = 100%)", "setting": "S. aureus USA300 LAC; nisin 100 µg/ml in TSB, experiment 2 of 3, after 4 h incubation", "result": 101.46, "unit": "%"},
      {"measurement": "stability (remaining antimicrobial activity, 0 h = 100%)", "setting": "S. aureus USA300 LAC; nisin 100 µg/ml in TSB, experiment 2 of 3, after 5 h incubation", "result": 105.85, "unit": "%"},
      {"measurement": "stability (remaining antimicrobial activity, 0 h = 100%)", "setting": "S. aureus USA300 LAC; nisin 100 µg/ml in TSB, experiment 2 of 3, after 6 h incubation", "result": 97.13, "unit": "%"},
      {"measurement": "stability (remaining antimicrobial activity, 0 h = 100%)", "setting": "S. aureus USA300 LAC; nisin 100 µg/ml in TSB, experiment 3 of 3, after 1 h incubation", "result": 107.69, "unit": "%"},
      {"measurement": "stability (remaining antimicrobial activity, 0 h = 100%)", "setting": "S. aureus USA300 LAC; nisin 100 µg/ml in TSB, experiment 3 of 3, after 2 h incubation", "result": 105.39, "unit": "%"},
      {"measurement": "stability (remaining antimicrobial activity, 0 h = 100%)", "setting": "S. aureus USA300 LAC; nisin 100 µg/ml in TSB, experiment 3 of 3, after 4 h incubation", "result": 113.09, "unit": "%"},
      {"measurement": "stability (remaining antimicrobial activity, 0 h = 100%)", "setting": "S. aureus USA300 LAC; nisin 100 µg/ml in TSB, experiment 3 of 3, after 5 h incubation", "result": 97.70, "unit": "%"},
      {"measurement": "stability (remaining antimicrobial activity, 0 h = 100%)", "setting": "S. aureus USA300 LAC; nisin 100 µg/ml in TSB, experiment 3 of 3, after 6 h incubation", "result": 77.36, "unit": "%"}
    ]}
  ]
}
